From PubChem BioAssay AID2060902 (Molecular Pharmacology Branch, DTP, NCI, 2025)

Tested on: 485368-065-R3-J5-PDC spheroids with HUVEC/MSC, viability
Assay: Anticancer human tumor 485368-065-R3-J5-PDC patient-derived pancreatic carcinoma cell line growth inhibition [RAS]
Conditions: for IC50: curve of first compound; for viability, T/C: stronger effect = lower value; active means viability on the fitted dose curve at most 10% of control; inactive means the rest
Procedure, shortened: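 Tumour cells grown as complex spheroids with HUVEC endothelial cells and mesenchymal stem cells, treated with RAS pathway inhibitor combinations. Each agent spans half-log steps from near clinical Cmax, or 10 microM where Cmax is unknown.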
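Further: spheroids exposed to agents for seven days before readout.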

C=CC(=O)Nc1cc(Nc2nccc(-c3cn(C)c4ccccc34)n2)c(OC)cc1N(C)CCN(C)C + CCn1c(-c2cccnc2C(C)OC)c2c3cc(ccc31)N1CCOC(CC(NC(=O)C(C(C)C)N(C)C(=O)C3(F)CCN(C(=O)C#CC(C)(C)N(C)C)CC3)C(=O)N3CCCC(N3)C(=O)OCC(C)(C)C2)C1
> 1 µM: IC50 (second compound 0.000949 µM) | IC50 (second compound 0.003 µM) | IC50 (second compound 0.00949 µM) | IC50 (second compound 0.03 µM) | IC50 (second compound 0.0949 µM) | IC50 (second compound 0.3 µM)
inactive: viability, T/C (second compound 0.000949 µM, first compound 0.00316 µM) 104% | viability, T/C (second compound 0.000949 µM, first compound 0.01 µM) 94.9% | viability, T/C (second compound 0.000949 µM, first compound 0.0316 µM) 99% | viability, T/C (second compound 0.000949 µM, first compound 0.1 µM) 91% | viability, T/C (second compound 0.000949 µM, first compound 0.316 µM) 101% | viability, T/C (second compound 0.000949 µM, first compound 1 µM) 105% | viability, T/C (second compound 0.003 µM, first compound 0.00316 µM) 87.5% | viability, T/C (second compound 0.003 µM, first compound 0.01 µM) 95.3% | viability, T/C (second compound 0.003 µM, first compound 0.0316 µM) 102% | viability, T/C (second compound 0.003 µM, first compound 0.1 µM) 93.7% | viability, T/C (second compound 0.003 µM, first compound 0.316 µM) 113% | viability, T/C (second compound 0.003 µM, first compound 1 µM) 115% | viability, T/C (second compound 0.00949 µM, first compound 0.00316 µM) 88.7% | viability, T/C (second compound 0.00949 µM, first compound 0.01 µM) 95.7% | viability, T/C (second compound 0.00949 µM, first compound 0.0316 µM) 98.4% | viability, T/C (second compound 0.00949 µM, first compound 0.1 µM) 102% | viability, T/C (second compound 0.00949 µM, first compound 0.316 µM) 117% | viability, T/C (second compound 0.00949 µM, first compound 1 µM) 103% | viability, T/C (second compound 0.03 µM, first compound 0.00316 µM) 89.4% | viability, T/C (second compound 0.03 µM, first compound 0.01 µM) 114% | viability, T/C (second compound 0.03 µM, first compound 0.0316 µM) 92.5% | viability, T/C (second compound 0.03 µM, first compound 0.1 µM) 98% | viability, T/C (second compound 0.03 µM, first compound 0.316 µM) 105% | viability, T/C (second compound 0.03 µM, first compound 1 µM) 110% | viability, T/C (second compound 0.0949 µM, first compound 0.00316 µM) 104% | viability, T/C (second compound 0.0949 µM, first compound 0.01 µM) 105% | viability, T/C (second compound 0.0949 µM, first compound 0.0316 µM) 105% | viability, T/C (second compound 0.0949 µM, first compound 0.1 µM) 107% | viability, T/C (second compound 0.0949 µM, first compound 0.316 µM) 110% | viability, T/C (second compound 0.0949 µM, first compound 1 µM) 97.6% | viability, T/C (second compound 0.3 µM, first compound 0.00316 µM) 101% | viability, T/C (second compound 0.3 µM, first compound 0.01 µM) 99.7% | viability, T/C (second compound 0.3 µM, first compound 0.0316 µM) 106% | viability, T/C (second compound 0.3 µM, first compound 0.1 µM) 112% | viability, T/C (second compound 0.3 µM, first compound 0.316 µM) 106% | viability, T/C (second compound 0.3 µM, first compound 1 µM) 101%

CC1(C)CCC(Nc2ncc(C(F)(F)F)c(-c3c[nH]c4c(P(C)(C)=O)c(C#N)ccc34)n2)CN1 (centres undefined) + CCn1c(-c2cccnc2C(C)OC)c2c3cc(ccc31)N1CCOC(CC(NC(=O)C(C(C)C)N(C)C(=O)C3(F)CCN(C(=O)C#CC(C)(C)N(C)C)CC3)C(=O)N3CCCC(N3)C(=O)OCC(C)(C)C2)C1
inactive: viability, T/C (second compound 0.000949 µM, first compound 0.000949 µM) 116% | viability, T/C (second compound 0.000949 µM, first compound 0.003 µM) 85.7% | viability, T/C (second compound 0.000949 µM, first compound 0.00949 µM) 48% | viability, T/C (second compound 0.000949 µM, first compound 0.03 µM) 47.1% | viability, T/C (second compound 0.000949 µM, first compound 0.0949 µM) 43.6% | viability, T/C (second compound 0.000949 µM, first compound 0.3 µM) 39.9% | viability, T/C (second compound 0.003 µM, first compound 0.000949 µM) 109% | viability, T/C (second compound 0.003 µM, first compound 0.003 µM) 73.9% | viability, T/C (second compound 0.003 µM, first compound 0.00949 µM) 61% | viability, T/C (second compound 0.003 µM, first compound 0.03 µM) 40.3% | viability, T/C (second compound 0.003 µM, first compound 0.0949 µM) 32.7% | viability, T/C (second compound 0.003 µM, first compound 0.3 µM) 35.9% | viability, T/C (second compound 0.00949 µM, first compound 0.000949 µM) 107% | viability, T/C (second compound 0.00949 µM, first compound 0.003 µM) 86.7% | viability, T/C (second compound 0.00949 µM, first compound 0.00949 µM) 46.6% | viability, T/C (second compound 0.00949 µM, first compound 0.03 µM) 40.9% | viability, T/C (second compound 0.00949 µM, first compound 0.0949 µM) 42.5% | viability, T/C (second compound 0.00949 µM, first compound 0.3 µM) 38.2% | viability, T/C (second compound 0.03 µM, first compound 0.000949 µM) 108% | viability, T/C (second compound 0.03 µM, first compound 0.003 µM) 66.1% | viability, T/C (second compound 0.03 µM, first compound 0.00949 µM) 47.4% | viability, T/C (second compound 0.03 µM, first compound 0.03 µM) 35.2% | viability, T/C (second compound 0.03 µM, first compound 0.0949 µM) 38.3% | viability, T/C (second compound 0.03 µM, first compound 0.3 µM) 45.3% | viability, T/C (second compound 0.0949 µM, first compound 0.000949 µM) 104% | viability, T/C (second compound 0.0949 µM, first compound 0.003 µM) 76.2% | viability, T/C (second compound 0.0949 µM, first compound 0.00949 µM) 54.9% | viability, T/C (second compound 0.0949 µM, first compound 0.03 µM) 39.9% | viability, T/C (second compound 0.0949 µM, first compound 0.0949 µM) 39% | viability, T/C (second compound 0.0949 µM, first compound 0.3 µM) 35.5% | viability, T/C (second compound 0.3 µM, first compound 0.000949 µM) 102% | viability, T/C (second compound 0.3 µM, first compound 0.003 µM) 92.3% | viability, T/C (second compound 0.3 µM, first compound 0.00949 µM) 55.1% | viability, T/C (second compound 0.3 µM, first compound 0.03 µM) 47% | viability, T/C (second compound 0.3 µM, first compound 0.0949 µM) 45.6% | viability, T/C (second compound 0.3 µM, first compound 0.3 µM) 42.6%
0.00904 µM: IC50 (second compound 0.000949 µM)
0.0157 µM: IC50 (second compound 0.003 µM)
0.0136 µM: IC50 (second compound 0.0949 µM)
0.00735 µM: IC50 (second compound 0.03 µM)
0.0176 µM: IC50 (second compound 0.3 µM)
0.00862 µM: IC50 (second compound 0.00949 µM)
